Measurements reported in patent US9480278B2, “Diet for altering the nutrient composition of feeder insects” (Mark Finke LLC, priority 2012, dated 2016).
Like-named read-outs stand apart in the source and are kept apart here.

Legend:
[1] = Lutein and zeaxanthin in diet versus lutein and zeaxanthin in feeder insect; details: cricket, whole feeder insect (dry matter), oral
Description: (§1) An experiment was performed to determine the levels of lutein and zeaxanthin in a feeder insect diet that would produce lutein and zeaxanthin levels in a feeder insect similar to those found in the wild.

feeder insects [2] = assay: as above; details: 64.9 mg/kg lutein in diet
Description: as §1

feeder insects [3] = assay: Vitamin E level in feeder insects fed diets with varying levels of vitamin E; type: in vivo, crickets; details: approximately 21 days, fasted 24 to 36 hours
Description: Captive insectivores fed with current methods have been shown in past studies to be deficient in vitamin E. Feeder insects which contain between approximately 50 and approximately 200 International Units (“IU”) of vitamin E per kilogram dry matter provide health benefits to captive insectivores. All references in this disclosure to concentrations in feeder insects will be based on dry matter measurements, unless otherwise specified. Experiments were performed to determine the levels of vitamin E in a feeder insect diet that would produce in the feeder insect the targeted levels between 50 and 200 IU of vitamin E per kilogram dry matter for consumption by an insectivore. In the experiments, feeder insects were fasted for 24 to 36 hours prior to analysis to ensure that food in the gut was eliminated completely so as not to affect the results. The feeder insects were provided the diet containing varying levels of vitamin E. Vitamin E analysis was then performed using the method as described by Cort, et. al., Vitamin E Content of Feedstuffs Determined by High-Performance Liquid Chromatography Fluorescence, JOURNAL OF AGRICULTURAL AND FOOD CHEMISTRY, Vol. 31, 1330-1333 (1983).
There is a direct relationship between the vitamin E content in the diet and the vitamin E content in the feeder insect. Since the feeder insects were fasted prior to analysis, and the results were collected when the feeder insects were grown to approximately two-thirds of adult-size within approximately 21 days after introduction of the diet, the vitamin E content in the feeder insect is a result of a change in the composition of the tissues of the feeder insect, rather than the consequence of food in the gut of the feeder insect. Regression analysis was performed on the data to establish a best-fit line defined by an equation FI=0.241*D+33.5, where FI is the vitamin E content of feeder insect and D is the vitamin E content in the feeder insect diet. […]

mealworms = assay: Vitamin E content of mealworms fed a diet containing added vitamin E; type: in vivo
Description: There is a direct relationship between the vitamin E content in the diet and the vitamin E content in the feeder insect. Since the feeder insects were fasted prior to analysis, and the results were collected when the feeder insects were grown to approximately two-thirds of adult-size within approximately 21 days after introduction of the diet, the vitamin E content in the feeder insect is a result of a change in the composition of the tissues of the feeder insect, rather than the consequence of food in the gut of the feeder insect. Regression analysis was performed on the data to establish a best-fit line defined by an equation FI=0.241*D+33.5, where FI is the vitamin E content of feeder insect and D is the vitamin E content in the feeder insect diet. According to the present inventive method, with this established equation, a diet, fed to the feeder insect, having a vitamin E content of between approximately 69 and approximately 691 IU per kilogram produces the targeted 50 to 200 IU of vitamin E per kilogram dry matter in the feeder insect, respectively.

feeder insects [4] = test system: feeder insects
in vivo = details: cricket
[5] = 3 milligrams of beta-carotene per kilogram of feeder insect diet
[6] = 65 milligrams of beta-carotene per kilogram of feeder insect diet

## CC1=C[C@H](O)CC(C)(C)[C@H]1/C=C/C(C)=C/C=C/C(C)=C/C=C/C=C(C)/C=C/C=C(C)/C=C/C1=C(C)C[C@@H](O)CC1(C)C [Lutein, lutein]
[1]; 11.6 mg/kg diet
  concentration at 21 days: 33 ng/g
[1]; 13.3 mg/kg diet
  concentration at 21 days: 333 ng/g
[1]; 193.6 mg/kg diet
  concentration at 21 days: 11300 ng/g
Feeder insects [2]
  Lutein in Feeder Insect: 800 µg/kg dry matter

## vitamin E
Feeder insects [3]; 31 IU/kg vitamin E in diet
  Vitamin E in Feeder Insect: 38.7 IU/kg dry matter
Feeder insects [3]; 210 IU/kg vitamin E in diet
  Vitamin E in Feeder Insect: 89.2 IU/kg dry matter
Feeder insects [3]; 360 IU/kg vitamin E in diet
  Vitamin E in Feeder Insect: 117.7 IU/kg dry matter
mealworms
  vitamin E content compared with mealworms fed a control diet: more vitamin E

## CC1=C(/C=C/C(C)=C/C=C/C(C)=C/C=C/C=C(C)/C=C/C=C(C)/C=C/C2=C(C)CCCC2(C)C)C(C)(C)CCC1 [Beta-carotene, beta-carotene]
Feeder insects [4]; [5]
  share of poultry's vitamin A requirement, by regression: approximately 78%
  share of the rat's vitamin A requirement, by regression: approximately 51%
  vitamin A yielded in feeder insect, by regression: 1,173 IU of vitamin A per kilogram dry matter
Feeder insects [4]; [6]
  share of poultry's vitamin A requirement, by regression: approximately 1600%
  share of the rat's vitamin A requirement, by regression: approximately 1000%
  vitamin A yielded in feeder insect, by regression: 23,000 IU of vitamin A per kilogram dry matter
In vivo; 0.2 mg/kg diet, Beta-carotene in Feeder Insect, 0.2 mg/kg beta-carotene in diet
  concentration at 21 days: 33.3 ng/g
In vivo; 0.3 mg/kg diet, Beta-carotene in Feeder Insect, 0.3 mg/kg beta-carotene in diet
  concentration at 21 days: 33.3 ng/g
In vivo; 3 mg beta-carotene per kg diet, beta-carotene in feeder insect by regression FI=219.2×D-2.92, 3 milligrams of beta-carotene per kilogram of feeder insect diet
  concentration at 21 days: 655 ng/g
In vivo; 11.7 mg/kg diet, Beta-carotene in Feeder Insect, 11.7 mg/kg beta-carotene in diet
  concentration at 21 days: 2720 ng/g
In vivo; 15.3 mg/kg diet, Beta-carotene in Feeder Insect, 15.3 mg/kg beta-carotene in diet
  concentration at 21 days: 3230 ng/g
In vivo; 65 mg beta-carotene per kg diet, beta-carotene in feeder insect by regression FI=219.2×D-2.92, 65 milligrams of beta-carotene per kilogram of feeder insect diet
  concentration at 21 days: 14300 ng/g
In vivo; beta-carotene in feeder insect by regression from Table C, diet with approximately 0.3 to approximately 1,496.4 milligrams of beta-carotene per kilogram
  concentration at 21 days: 62.8 to 328000 ng/g
In vivo; beta-carotene in feeder insect by regression from Table C, diet with approximately 68.4 to approximately 365 milligrams of beta-carotene per kilogram
  concentration at 21 days: 15000 to 80000 ng/g
